Values of other authors as cited in US20240115654A1, “INTRAVENOUS ADMINISTRATION OF ENGINEERED ANTIMICROBIAL AMPHIPHILIC PEPTIDES” (priority 2021, published 2024).

Tested on: Escherichia coli ATCC 25922 (QC)
Conditions: E. coli ATCC 25922; established CLSI QC range; cited from earlier work

Colistin [reference compound]
MIC QC range (in parentheses under the MIC): (0.25-2) μg/mL
